This assay deals with mice. Kind of assay: Neuropharmacological Assay (SmartCube). The format is in vivo. To be noted: for minimal effective dose: Mus musculus, read-out: POTENCY (minimal effective dose, MED); for AD: ADHD (SmartCube probability) / AG: analgesic (SmartCube probability) / AX: anxiolytic (SmartCube probability) / CE: cognitive enhancer (SmartCube probability) / DP: anti-depressant (SmartCube probability) / MS: mood stabilizer (SmartCube probability) / PS: anti-psychotic (SmartCube probability) / SD: sedative hypnotic (SmartCube probability) / UN: uncharacterized CNS activity (SmartCube probability): mice, i.p. 15 min before test, most efficacious dose(s) of 3 doses. In short, it runs like this: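 Behavior of treated mice captured by digital video and matched algorithmically against reference drug classes, yielding a class probability at the most efficacious of 3 i.p. doses (15 min pretreatment, NMP/PEG/propylene glycol vehicle). Potency given as MED, the mpk dose reaching ≥50% total activity across usually 0.3–30 mpk.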

The mark [1] stands for this setting: MED = dose having 50% or more total activity in SmartCube.

Where two headings read alike, the source gives them in different places.

Take `Fc1cccc2c1[C@@H](CNC1CCC1)OCC2` [Example 96, (S)-N-((8-fluoroisochroman-1-yl)methyl)cyclobutanamine]: the minimal effective dose lay within 10 to 30 mg/kg, the “AD: ADHD (SmartCube probability)” value was “+ (LOQ≤ + <5%)”, the “AG: analgesic (SmartCube probability)” value is “+ (LOQ≤ + <5%)” and the “AX: anxiolytic (SmartCube probability)” value is listed as “+ (LOQ≤ + <5%)”. Besides, the “CE: cognitive enhancer (SmartCube probability)” value (“CE: cognitive enhancer” below) is “+ (LOQ≤ + <5%)”, the “DP: anti-depressant (SmartCube probability)” value (“DP: anti-depressant” below) is “+ (LOQ≤ + <5%)”, the “MS: mood stabilizer (SmartCube probability)” value (“MS: mood stabilizer” for short) is given as “+ (LOQ≤ + <5%)” and the “PS: anti-psychotic (SmartCube probability)” value (from here on “PS: anti-psychotic”) was “+ (LOQ≤ + <5%)”. The “SD: sedative hypnotic (SmartCube probability)” value (“SD: sedative hypnotic” for short) is reported as “+++ (25%≤ +++ <50%)” and the “UN: uncharacterized CNS activity (SmartCube probability)” value (“UN: uncharacterized CNS activity” below) is “+ (LOQ≤ + <5%)”.

As for `Fc1cccc2c1[C@H](CNC1CCC1)OCC2` [Example 97, (R)-N-((8-fluoroisochroman-1-yl)methyl)cyclobutanamine], the minimal effective dose lay within 3 to 10 mg/kg, the “AD: ADHD (SmartCube probability)” value is recorded as “++ (5%≤ ++ <25%)”, the “AG: analgesic (SmartCube probability)” value is on record as “+ (LOQ≤ + <5%)” and the “AX: anxiolytic (SmartCube probability)” value is on record as “++ (5%≤ ++ <25%)”. For the same compound, the “CE: cognitive enhancer” value was “+ (LOQ≤ + <5%)”, the “DP: anti-depressant” value is listed as “+++ (25%≤ +++ <50%)”, the “MS: mood stabilizer” value is recorded as “+ (LOQ≤ + <5%)” and the “PS: anti-psychotic” value is given as “++ (5%≤ ++ <25%)”. Further, the “SD: sedative hypnotic” value is recorded as “+ (LOQ≤ + <5%)” and the “UN: uncharacterized CNS activity” value is on record as “+++ (25%≤ +++ <50%)”.

For the compound `CNC[C@H]1OC[C@@H](O)c2cccc(F)c21` [Example 98, (1S,4S)-8-fluoro-1-((methylamino)methyl)isochroman-4-ol], the “AD: ADHD (SmartCube probability)” value is “+ (LOQ≤ + <5%)”, the “AG: analgesic (SmartCube probability)” value was “+ (LOQ≤ + <5%)”, the “AX: anxiolytic (SmartCube probability)” value is listed as “+ (LOQ≤ + <5%)” and the “CE: cognitive enhancer” value is reported as “+ (LOQ≤ + <5%)”. Besides, the “DP: anti-depressant” value was “+ (LOQ≤ + <5%)”, the “MS: mood stabilizer” value is recorded as “+ (LOQ≤ + <5%)”, the “PS: anti-psychotic” value is recorded as “+ (LOQ≤ + <5%)” and the “SD: sedative hypnotic” value is “+ (LOQ≤ + <5%)”. The “UN: uncharacterized CNS activity” value is “+ (LOQ≤ + <5%)”. The minimal effective dose under setting [1] is over 30 mg/kg.

In the case of `CNC[C@@H]1OC[C@H](O)c2cccc(F)c21` [Example 99, (1R,4R)-8-fluoro-1-((methylamino)methyl)isochroman-4-ol], the “AD: ADHD (SmartCube probability)” value was “+ (LOQ≤ + <5%)”, the “AG: analgesic (SmartCube probability)” value was “+ (LOQ≤ + <5%)”, the “AX: anxiolytic (SmartCube probability)” value is on record as “++ (5%≤ ++ <25%)” and the “CE: cognitive enhancer” value was “+ (LOQ≤ + <5%)”. The “DP: anti-depressant” value was “+ (LOQ≤ + <5%)”, the “MS: mood stabilizer” value is “+ (LOQ≤ + <5%)”, the “PS: anti-psychotic” value is “++ (5%≤ ++ <25%)” and the “SD: sedative hypnotic” value is recorded as “++ (5%≤ ++ <25%)”. Moreover, the “UN: uncharacterized CNS activity” value is on record as “+++ (25%≤ +++ <50%)”. The minimal effective dose under setting [1] was in the range of 10 to 30 mg/kg.

Take `CNC[C@@H]1OCCc2ccc3c(c21)OC(F)(F)O3` [Example 101, (R)-1-(2,2-difluoro-6,9-dihydro-7H-[1,3]dioxolo[4,5-h]isochromen-9-yl)-N-methylmethanamine]: the “AD: ADHD (SmartCube probability)” value is recorded as “+ (LOQ≤ + <5%)”, the “AG: analgesic (SmartCube probability)” value is given as “+++ (25%≤ +++ <50%)”, the “AX: anxiolytic (SmartCube probability)” value is “++ (5%≤ ++ <25%)” and the “CE: cognitive enhancer” value was “++ (5%≤ ++ <25%)”. Further, the “DP: anti-depressant” value was “+ (LOQ≤ + <5%)”, the “MS: mood stabilizer” value is reported as “+ (LOQ≤ + <5%)”, the “PS: anti-psychotic” value is reported as “++ (5%≤ ++ <25%)” and the “SD: sedative hypnotic” value is recorded as “+ (LOQ≤ + <5%)”. The “UN: uncharacterized CNS activity” value is on record as “+ (LOQ≤ + <5%)”. Besides, the minimal effective dose under setting [1] fell in the range of 3 to 10 mg/kg.

One may read the minimal effective dose as the smallest amount tested that counted as effective.

Source of the values: patent US10196403B2, “Compounds and compositions and uses thereof” (Sunovion Pharmaceuticals Inc., priority 2016, dated 2019).
